Data from ChEMBL document CHEMBL4373748, “Reinvestigation of Mycothiazole Reveals the Penta-2,4-dien-1-ol Residue Imparts Picomolar Potency and 8S Configuration” (ACS Med Chem Lett, 2020).
Blank lines part the entries; values can stand above or below the molecule they belong to.

Assays:
[1] = test system: HCT-116; test: Cytotoxicity against human HCT116 cells assessed as reduction in cell viability incubated for 3 days by tryphan blue dye based assay; format: functional; details: HCT-116, 72 h
[2] = Stability of compound in benzene-d6 by 1H-NMR analysis; format: physicochemical
[3] = test system: PANC-1; test: Cytotoxicity against human PANC1 cells assessed as reduction in cell viability incubated for 3 days by tryphan blue dye based assay; format: functional; details: PANC-1, 72 h
[4] = (§1) Drug degradation assessed as methyl N-[(E)-8-[4-[(2E)-hexa-2,5-dienyl]-1,3-thiazol-2-yl]-3,7-dihydroxy-3-(hydroxymethyl)-8-methylnon-4-enyl]carbamate metabolite formation by measuring maximum absorbance units measured after preserving compound in amber vial containing 95% CH3CN and 5% H2O followed by drying using N2 stream and later punged-with argon in dark desiccator under vacuum for 24 hrs by ultraviolet-photoiodide array detection method; format: physicochemical
[5] = Stability of compound assessed as shelf life measured after preserving compound in amber vial containing 95% CH3CN and 5% H2O followed by drying using N2 stream and later punged-with argon in dark desiccator under vacuum for 24 hrs; format: physicochemical
[6] = as §1, with “followed by exposure to 4 degC” for “in dark desiccator under vacuum”; format: physicochemical
[7] = (§2) Drug degradation assessed as methyl N-[(E)-8-[4-[(2E)-hexa-2,5-dienyl]-1,3-thiazol-2-yl]-3,7-dihydroxy-3-(hydroxymethyl)-8-methylnon-4-enyl]carbamate metabolite formation by measuring relative abundance measured after preserving compound in amber vial containing 95% CH3CN and 5% H2O followed by drying using N2 stream followed by exposure to direct light for 24 hrs by LC-MS-TIC analysis; format: physicochemical
[8] = Stability of compound assessed as shelf life measured after preserving compound in amber vial containing 95% CH3CN and 5% H2O followed by drying using N2 stream and later punged-with argon followed by exposure to 4 degC for 24 hrs; format: physicochemical
[9] = as §1, with “followed by exposure to direct light” for “and later punged-with argon in dark desiccator under vacuum”; format: physicochemical
[10] = as §1, with “relative abundance” for “measuring maximum absorbance units”, “LC-MS-TIC analysis” for “ultraviolet-photoiodide array detection method”; format: physicochemical
[11] = test system: HepG2; test: Cytotoxicity against human HepG2 cells assessed as reduction in cell viability incubated for 3 days by tryphan blue dye based assay; format: functional; details: HepG2, 72 h
[12] = as §2, with “methanol” for “95% CH3CN and 5% H2O”, “stream” for “stream followed by exposure to direct light”, “hrs at room temperature” for “hrs”; format: physicochemical
[13] = as §1, with “methanol” for “95% CH3CN and 5% H2O”, “stream” for “stream and later punged-with argon in dark desiccator under vacuum”, “hrs at room temperature” for “hrs”; format: physicochemical
[14] = as §2, with “methanol” for “95% CH3CN and 5% H2O”, “air” for “N2”, “stream” for “stream followed by exposure to direct light”, “hrs at room temperature” for “hrs”; format: physicochemical
[15] = as §1, with “methanol” for “95% CH3CN and 5% H2O”, “air” for “N2”, “stream” for “stream and later punged-with argon in dark desiccator under vacuum”, “hrs at room temperature” for “hrs”; format: physicochemical
[16] = as §2, with “stream and later punged-with argon” for “stream”, “4 degC” for “direct light”; format: physicochemical

Structure (SMILES): C=CC/C=C\Cc1csc(C(C)(C)[C@H](O)C/C=C/C(O)(CO)CCNC(=O)OC)n1 (stereo partly specified)
IC50 [1]: > 1000 nM

Stability [2]: >= 6 months
Structure (SMILES): C=CC/C=C/Cc1csc(C(C)(C)[C@@H](C/C=C\C(=C)CCNC(=O)OC)OC(C)=O)n1
IC50 [3]: 1.3 nM

Structure (SMILES): C=CC/C=C\Cc1csc(C(C)(C)[C@H](O)CC2C=C(CCNC(=O)OC)CON2c2ccccc2)n1 (stereo partly specified)
IC50 [3]: > 1000 nM

Structure (SMILES): C=CC/C=C/Cc1csc(C(C)(C)[C@H](O)C/C=C\C(=C)CCNC(=O)OC)n1
IC50 [1]: 0.35 nM | Drug degradation [4]: 500000 a.u. | Stability [5]: 3 to 6 weeks | Drug degradation [6]: 500000 a.u. | Drug degradation [7]: 60% | Stability [8]: 3 to 6 weeks | Drug degradation [9]: 280000 a.u. | Drug degradation [10]: 20% | IC50 [11]: 0.27 nM | IC50 [3]: 0.16 nM | Drug degradation [12]: 45% | Drug degradation [13]: 500000 a.u. | Drug degradation [14]: 45% | Drug degradation [15]: 500000 a.u. | Drug degradation [16]: 20%

Structure (SMILES): C=CC/C=C\Cc1csc(C(C)(C)C(=O)C/C=C\C(=C)CCNC(=O)OC)n1
IC50 [3]: 2000 nM

Structure (SMILES): C=CC/C=C\Cc1csc(C(C)(C)C(O)CC2C=C(CCNC(=O)OC)CN(c3ccccc3)O2)n1 (single isomer, unassigned)
IC50 [3]: > 1000 nM
